target: Ba/F3 V617F cells (Homo sapiens, UniProt O60674, V617F, cells depend on it); test: Proliferation assay (Cell Titer-Glo, 72 h) utilizing Ba/F3 V617F cells; format: cell-based, mouse; settings: Ba/F3 V617F cells, proliferation, level of activity given as class symbol, read-out: IC50 (the source's name)
Summary of the method: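 Ba/F3 V617F cells in RPMI/10% FBS, 1×10^5 cells/mL, exposed in duplicate to 3-fold serial compound dilutions (top 5 mM DMSO stock, diluted 1:250, added as 2× solution in 5% FBS medium) for 72 h at 37 °C. Viability by Cell Titer-Glo luminescence; IC50 reported.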

Sequence of Ba/F3 V617F cells (O60674 whole entry V617F): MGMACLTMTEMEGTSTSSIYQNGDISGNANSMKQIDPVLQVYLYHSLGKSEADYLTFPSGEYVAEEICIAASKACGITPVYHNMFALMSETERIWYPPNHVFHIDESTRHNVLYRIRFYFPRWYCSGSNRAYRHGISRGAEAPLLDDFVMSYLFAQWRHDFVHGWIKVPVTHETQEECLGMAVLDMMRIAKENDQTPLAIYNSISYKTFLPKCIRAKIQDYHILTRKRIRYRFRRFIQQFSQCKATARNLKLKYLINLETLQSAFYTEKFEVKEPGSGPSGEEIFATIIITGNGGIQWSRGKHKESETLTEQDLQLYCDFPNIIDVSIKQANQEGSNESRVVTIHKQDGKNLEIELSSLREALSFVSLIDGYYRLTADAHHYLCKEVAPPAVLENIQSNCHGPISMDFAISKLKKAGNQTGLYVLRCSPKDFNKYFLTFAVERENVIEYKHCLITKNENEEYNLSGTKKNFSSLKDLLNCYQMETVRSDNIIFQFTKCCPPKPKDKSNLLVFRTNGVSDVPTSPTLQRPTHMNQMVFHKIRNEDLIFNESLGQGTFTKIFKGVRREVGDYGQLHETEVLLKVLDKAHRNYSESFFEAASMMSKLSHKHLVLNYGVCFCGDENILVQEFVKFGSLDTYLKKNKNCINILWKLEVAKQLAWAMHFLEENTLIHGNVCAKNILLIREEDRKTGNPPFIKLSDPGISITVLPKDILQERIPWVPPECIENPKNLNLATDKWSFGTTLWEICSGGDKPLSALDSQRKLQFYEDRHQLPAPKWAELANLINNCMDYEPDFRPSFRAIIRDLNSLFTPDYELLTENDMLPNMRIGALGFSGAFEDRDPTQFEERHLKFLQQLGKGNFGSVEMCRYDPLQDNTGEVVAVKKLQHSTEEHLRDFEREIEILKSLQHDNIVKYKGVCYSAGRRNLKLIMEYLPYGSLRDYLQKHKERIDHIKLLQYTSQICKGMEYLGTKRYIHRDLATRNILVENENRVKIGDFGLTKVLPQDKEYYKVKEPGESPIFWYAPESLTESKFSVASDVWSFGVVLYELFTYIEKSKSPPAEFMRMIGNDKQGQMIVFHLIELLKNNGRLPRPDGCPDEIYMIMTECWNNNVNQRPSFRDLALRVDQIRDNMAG

`CS(=O)(=O)N1CC2CC(c3ccc(Nc4nccc(-c5ccc(N6CCOCC6)nc5)n4)cc3)C1C2` (stereo not shown) [compound 229, 4-(6-(morpholin-4-yl)pyridin-3-yl)-N-(4-(2-methylsulfonyl-2-azabicyclo[2.2.1]heptan-6-yl)phenyl)pyrimidin-2-amine] was tested. Which GI50 did it give?
The GI50 was 1000 to 10000 nM.

With `CCCNc1ccc(-c2ccnc(Nc3ccc(N4CC5(C)CN(C)CC(C)(C4)C5)c(C)c3)n2)cn1` [compound 213, 4-(6-(propylamino)pyridin-3-yl)-N-(3-methyl-4-(1,5,7-trimethyl-3,7-diazabicyclo[3.3.1]nonan-3-yl)phenyl)pyrimidin-2-amine] as the compound, how does the GI50 read?
Its GI50 is under 1000 nM.

How did the GI50 turn out when `Cc1cc(Nc2nccc(-c3cnc4c(c3)OC(C)(C)C(=O)N4)n2)ccc1N1CCN2CCC1C2` (stereo not shown) [compound 252, 4-(2,2-dimethyl-3-oxo-3,4-dihydro-2H-pyrido[3,2-b][1,4]oxazin-7-yl)-N-(3-methyl-4-(1,4-diazabicyclo[3.2.1]octan-4-yl)phenyl)pyrimidin-2-amine] was run?
Its GI50 is under 1000 nM.

How did the GI50 turn out when `Cc1cc(Nc2nccc(-c3ccc4c(c3)CCCC(=O)N4)n2)ccc1N1C[C@@H]2C[C@H]1CN2C` [compound 242, 4-(2-oxo-2,3,4,5-tetrahydro-1H-benzo[b]azepin-7-yl)-N-(3-methyl-4-((1S,4S)-5-methyl-2,5-diazabicyclo[2.2.1]heptan-2-yl)phenyl)pyrimidin-2-amine] was run?
Its GI50 is under 1000 nM.

How did the GI50 turn out when `CC1(C)Oc2cc(-c3ccnc(Nc4ccc(N5C[C@@H]6C[C@H]5CN6S(C)(=O)=O)c(Cl)c4)n3)cnc2NC1=O` [compound 249, 4-(2,2-dimethyl-3-oxo-3,4-dihydro-2H-pyrido[3,2-b][1,4]oxazin-7-yl)-N-(3-chloro-4-((1S,4S)-5-(methylsulfonyl)-2,5-diazabicyclo[2.2.1]heptan-2-yl)phenyl)pyrimidin-2-amine] was run?
The GI50 was under 1000 nM.

Which GI50 does the source give for `Cc1cc(Nc2nccc(-c3ccc(N4CCOCC4)nc3)n2)ccc1N1C2CCC1CC(N(C)C)C2` (stereo not shown) [compound 286, 4-(6-(morpholin-4-yl)pyridin-3-yl)-N-(3-methyl-4-(3-(dimethylamino)-8-azabicyclo[3.2.1]octan-8-yl)phenyl)pyrimidin-2-amine] here?
The GI50 was under 1000 nM.

With `Cc1cc(Nc2nccc(-c3ccc(N4CCOCC4)nc3)n2)ccc1N1C[C@@H]2CC[C@H]1C2` [compound 222, 4-(6-(morpholin-4-yl)pyridin-3-yl)-N-(3-methyl-4-((1S,4R)-2-azabicyclo[2.2.1]heptan-2-yl)phenyl)pyrimidin-2-amine] as the compound, how does the GI50 read?
Its GI50 is under 1000 nM.

Which GI50 does the source give for `COCCN(C)c1ccc(-c2ccnc(Nc3ccc(N4C[C@@H]5C[C@H]4CO5)c(C)c3)n2)cn1` [compound 220, 4-(6-(2-methoxyethyl)(methyl)aminopyridin-3-yl)-N-(3-methyl-4-((1S,4S)-5-oxa-2-azabicyclo[2.2.1]heptan-2-yl)phenyl)pyrimidin-2-amine] here?
Its GI50 is under 1000 nM.

same assay, conditions: Ba/F3 V617F cells, proliferation, level of activity to inhibit JAK2, read-out: IC50 (the source's name)

Which GI50 does the source give for `CN1C[C@H]2C[C@@H]1CN2c1ccc(Nc2nccc(-c3cnc4c(c3)OC(C)(C)C(=O)N4)n2)cc1F` [compound 73, 4-(2,2-dimethyl-3-oxo-3,4-dihydro-2H-pyrido[3,2-b][1,4]oxazin-7-yl)-N-(3-fluoro-4-((1R,4R)-5-methyl-2,5-diazabicyclo[2.2.1]heptan-2-yl)phenyl)pyrimidin-2-amine] here?
Its GI50 is under 1000 nM.

For `CN1C[C@@H]2C[C@H]1CN2c1ccc(Nc2nccc(-c3cnc4c(c3)OCCN4)n2)cc1C(F)(F)F` [compound 98, 4-(3,4-dihydro-2H-pyrido[3,2-b][1,4]oxazin-7-yl)-N-(3-trifluoromethyl-4-((1S,4S)-5-methyl-2,5-diazabicyclo[2.2.1]heptan-2-yl)phenyl)pyrimidin-2-amine], which GI50 is on record?
The GI50 was under 1000 nM.

For `Cc1cc(Nc2nccc(-c3ccc(N(C)C)nc3)n2)ccc1N1C[C@@H]2C[C@H]1CN2C` [compound 1, 4-(6-(N,N-dimethylamino)pyridin-3-yl)-N-(3-methyl-4-((1S,4S)-5-methyl-2,5-diazabicyclo[2.2.1]heptan-2-yl)phenyl)pyrimidin-2-amine], which GI50 is on record?
The GI50 was under 1000 nM.

For `CN1C[C@@H]2C[C@H]1CN2c1ccc(Nc2nccc(-c3ccc(NCc4ccccc4)nc3)n2)cc1F` [compound 81, 4-(6-(benzylamino)pyridin-3-yl)-N-(3-fluoro-4-((1S,4S)-5-methyl-2,5-diazabicyclo[2.2.1]heptan-2-yl)phenyl)pyrimidin-2-amine], which GI50 is on record?
Its GI50 is under 1000 nM.

How did the GI50 turn out when `CN(C)c1ccc(-c2ccnc(Nc3ccc(N4C[C@@H]5C[C@H]4CN5C)c(F)c3)n2)cn1` [compound 7, 4-(6-(N,N-dimethylamino)pyridin-3-yl)-N-(3-fluoro-4-((1S,4S)-5-methyl-2,5-diazabicyclo[2.2.1]heptan-2-yl)phenyl)pyrimidin-2-amine] was run?
Its GI50 is under 1000 nM.

With `Cc1cc(Nc2nccc(-c3cnc4c(c3)OCCN4)n2)ccc1N1C[C@@H]2C[C@H]1CN2C` [compound 86, 4-(3,4-dihydro-2H-pyrido[3,2-b][1,4]oxazin-7-yl)-N-(3-methyl-4-((1S,4S)-5-methyl-2,5-diazabicyclo[2.2.1]heptan-2-yl)phenyl)pyrimidin-2-amine] as the compound, how does the GI50 read?
Its GI50 is under 1000 nM.

With `CN1C[C@H]2C[C@@H]1CN2c1ccc(Nc2nccc(-c3ccc(N4CCOCC4)nc3)n2)cc1F` [compound 74, 4-(6-(morpholin-4-yl)pyridin-3-yl)-N-(3-fluoro-4-((1R,4R)-5-methyl-2,5-diazabicyclo[2.2.1]heptan-2-yl)phenyl)pyrimidin-2-amine] as the compound, how does the GI50 read?
The GI50 was under 1000 nM.

With `Cc1cc(Nc2nccc(-c3ccc(NCCNS(=O)(=O)C4CC4)nc3)n2)ccc1N1C[C@@H]2C[C@H]1CN2C` [compound 99, 4-(6-((2-(cyclopropylsulfonyl)aminoethyl)-amino)pyridin-3-yl)-N-(3-methyl-4-((1S,4S)-5-methyl-2,5-diazabicyclo[2.2.1]heptan-2-yl)phenyl)pyrimidin-2-amine] as the compound, how does the GI50 read?
Its GI50 is 1000 to 10000 nM.

How did the GI50 turn out when `Cc1cc(Nc2nccc(-c3cnc4c(c3)OC(C)(C)C(=O)N4)n2)ccc1N1CCN2CCC1CC2` [compound 160, 4-(2,2-dimethyl-3-oxo-3,4-dihydro-2H-pyrido[3,2-b][1,4]oxazin-7-yl)-N-(3-methyl-4-(1,4-diazabicyclo[3.2.2]nonan-4-yl)phenyl)pyrimidin-2-amine] was run?
Its GI50 is under 1000 nM.

How did the GI50 turn out when `CN1C[C@@H]2C[C@H]1CN2c1ccc(Nc2nccc(-c3ccc(C(=O)Nc4ccccn4)cc3)n2)cc1F` [compound 133, 4-(4-((pyridin-2-yl)aminocarbonyl)phenyl)-N-(3-fluoro-4-((1S,4S)-5-methyl-2,5-diazabicyclo[2.2.1]heptan-2-yl)phenyl)pyrimidin-2-amine] was run?
Its GI50 is 1000 to 10000 nM.

For `CN1C[C@@H]2C[C@H]1CN2c1ccc(Nc2nccc(-c3cc[nH]c3)n2)cc1` [compound 170, 4-(1H-pyrrol-3-yl)-N-(4-((1S,4S)-5-methyl-2,5-diazabicyclo[2.2.1]heptan-2-yl)phenyl)pyrimidin-2-amine], which GI50 is on record?
Its GI50 is 1000 to 10000 nM.

Which GI50 does the source give for `CN1C2CCC1CN(c1ccc(Nc3nccc(-c4ccc(NS(C)(=O)=O)nc4)n3)cc1)C2` [compound 156, 4-(6-(methylsulfonylamino)pyridin-3-yl)-N-(4-(8-methyl-3,8-diazabicyclo[3.2.1]octan-3-yl)phenyl)pyrimidin-2-amine] here?
The GI50 was 1000 to 10000 nM.

Which GI50 does the source give for `Cc1cc(Nc2nccc(-c3ccc(NS(C)(=O)=O)nc3)n2)ccc1N1CC2CCC(C1)N2C` [compound 167, 4-(6-(methylsulfonylamino)pyridin-3-yl)-N-(3-methyl-4-(8-methyl-3,8-diazabicyclo[3.2.1]octan-3-yl)phenyl)pyrimidin-2-amine] here?
Its GI50 is under 1000 nM.

How did the GI50 turn out when `CN1C[C@@H]2C[C@H]1CN2c1ccc(Nc2nccc(-c3ccc(NC4CCCCC4)nc3)n2)cc1C(F)(F)F` [compound 94, 4-(6-(cyclohexylamino)pyridin-3-yl)-N-(3-trifluoromethyl-4-((1S,4S)-5-methyl-2,5-diazabicyclo[2.2.1]heptan-2-yl)phenyl)pyrimidin-2-amine] was run?
Its GI50 is under 1000 nM.

For `CN1CCOc2cc(-c3ccnc(Nc4ccc(N5C[C@@H]6C[C@H]5CN6C)c(F)c4)n3)cnc21` [compound 9, 4-(4-methyl-3,4-dihydro-2H-pyrido[3,2-b][1,4]oxazin-7-yl)-N-(3-fluoro-4-((1S,4S)-5-methyl-2,5-diazabicyclo[2.2.1]heptan-2-yl)phenyl)pyrimidin-2-amine], which GI50 is on record?
Its GI50 is under 1000 nM.

Which GI50 does the source give for `CCOC(C)c1ccc(-c2ccnc(Nc3ccc(N4C[C@@H]5C[C@H]4CN5C)c(C)c3)n2)cc1` (stereo partly drawn) [compound 181, 4-(4-(1-ethoxyethyl)phenyl)-N-(3-methyl-4-((1S,4S)-5-methyl-2,5-diazabicyclo[2.2.1]heptan-2-yl)phenyl)pyrimidin-2-amine] here?
The GI50 was 1000 to 10000 nM.

Which GI50 does the source give for `Cc1cc(Nc2nccc(-c3ccc(N4CCOCC4)nc3)n2)ccc1N1CC2(C)CN(C)CC(C)(C1)C2` [compound 75, 4-(6-(morpholin-4-yl)pyridin-3-yl)-N-(3-methyl-4-(1,5,7-trimethyl-3,7-diazabicyclo[3.3.1]nonan-3-yl)phenyl)pyrimidin-2-amine] here?
Its GI50 is under 1000 nM.

same assay, conditions: inhibition of JAK2 activity, proliferation of Ba/F3 V617F cells, read-out: IC50 (the source's name)

Which GI50 does the source give for `Cc1cc(Nc2nccc(-c3ccc(N4CCOCC4)nc3)n2)cnc1N1C[C@@H]2C[C@H]1CN2C` [compound 66, 4-(6-(morpholin-4-yl)pyridin-3-yl)-N-(5-methyl-6-((1S,4S)-5-methyl-2,5-diazabicyclo[2.2.1]heptan-2-yl)pyridin-3-yl)pyrimidin-2-amine] here?
Its GI50 is 1000 to 10000 nM.

For `Cc1cc(Nc2nccc(-c3ccc(N4C[C@@H]5C[C@H]4CO5)nc3)n2)cnc1N1C[C@@H]2C[C@H]1CN2C` [compound 266, 4-(6-((1S,4S)-2-oxa-5-azabicyclo[2.2.1]heptan-5-yl)pyridin-3-yl)-N-(5-methyl-6-((1S,4S)-5-methyl-2,5-diazabicyclo[2.2.1]heptan-2-yl)pyridin-3-yl)pyrimidin-2-amine], which GI50 is on record?
The GI50 was under 1000 nM.

How did the GI50 turn out when `Cc1cc(Nc2nccc(-c3cnc4c(c3)OCCN4C)n2)cnc1N1C[C@@H]2C[C@H]1CN2C` [compound 65, 4-(4-methyl-3,4-dihydro-2H-pyrido[3,2-b][1,4]oxazin-7-yl)-N-(5-methyl-6-((1S,4S)-5-methyl-2,5-diazabicyclo[2.2.1]heptan-2-yl)pyridin-3-yl)pyrimidin-2-amine] was run?
Its GI50 is under 1000 nM.
